Drawing on US10925874B2, “Substituted pyrazolopyrimidines as glucocerebrosidase activators” (The United States of America, as Represented by the …, priority 2010, dated 2021), this text covers AC50 for 27 molecules.

Broadly, the AC50 is the concentration giving half of the maximal activity seen.

In this assay the target is T1, N370S glucocerebrosidase from human spleen homogenate (Homo sapiens, UniProt P04062, N409S).
T1 construct: N370S glucocerebrosidase from human spleen homogenate as the enzyme preparation; from tissue; host or cells: human spleen homogenate
T1 sequence (P04062 40-536 N409S): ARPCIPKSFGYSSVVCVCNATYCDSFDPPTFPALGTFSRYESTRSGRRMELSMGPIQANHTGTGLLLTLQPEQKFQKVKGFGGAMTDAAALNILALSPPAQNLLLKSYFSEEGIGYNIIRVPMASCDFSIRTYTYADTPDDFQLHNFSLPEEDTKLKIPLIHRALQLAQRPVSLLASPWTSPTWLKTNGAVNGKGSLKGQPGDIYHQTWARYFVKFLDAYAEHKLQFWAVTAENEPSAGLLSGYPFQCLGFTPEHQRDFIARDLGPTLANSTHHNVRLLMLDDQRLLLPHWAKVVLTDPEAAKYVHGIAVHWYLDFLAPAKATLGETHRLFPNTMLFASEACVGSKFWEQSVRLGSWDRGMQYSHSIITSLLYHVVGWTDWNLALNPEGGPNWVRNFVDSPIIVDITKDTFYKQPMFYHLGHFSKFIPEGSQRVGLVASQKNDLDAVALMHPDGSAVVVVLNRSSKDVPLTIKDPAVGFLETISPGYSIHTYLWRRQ
Put plainly: qHTS fluorogenic enzyme assay for activators of N370S glucocerebrosidase (4-methylumbelliferyl-beta-D-glucopyranoside substrate). Particulars: pH 5.0, 37° C. 40 min. Type of assay: biochemical. The source says:
qHTS Assay for Inhibitors and Activators of N370S glucocerebrosidase as a Potential Chaperone Treatment of Gaucher Disease: Primary Screen Confirmation
This is a fluorogenic enzyme assay with 4-methylumbelliferyl-beta-D-glucopyranoside as the substrate and N370S glucocerebrosidase from human spleen homogenate as the enzyme preparation. Upon the hydrolysis of this fluorogenic substrate, the resulting product, […] which can be detected by a standard fluorescence plate reader. Data were normalized to the controls for basal activity (without enzyme) and 100% activity (with enzyme). The AC50 values were determined from concentration-response data modeled with the standard Hill equation.
Human spleen homogenate is prepared as follows by homogenizing spleen with assay buffer containing 50 mM citric acid (titrated with potassium phosphate to pH 5.0), 100 mM potassium chloride, 10 mM sodium chloride, 1 mM magnesium chloride, 0.01% Tween-20. The protein concentration of the human spleen homogenate is approximated 1.35 ug/ul.
The assay is performed in 1536 well plates according to the following protocol. (1) 2 ul spleen homogenate ([…] final) is added to each well. (2) 23 nL test compound in DMSO solution is added to each well. The final concentration of compound in the test well is 0.5 nM to 58 uM. (3) 2 ul of substrate (1 mM final) are added to each well. (4) Incubate assay plates at 37° C. for 40 min. (5) Add 2 ul stop solution (1M NaOH and 1M Glycine mixture, pH 10) to each well. (6) Detect the assay plate in a ViewLux plate reader (PerkinElmer) using 365 nm excitation with emission at 440 nm.
(In general: Quantitative high-throughput screening tests each substance at several concentrations.)

The molecule `Cc1cc(C)n2ncc(C(=O)Nc3ccc4c(c3)OCO4)c2n1` [NCGC00054856-02, N-(benzo[d][1,3]dioxol-5-yl)-5,7-dimethylpyrazolo[1,5-a]pyrimidine-3-carboxamide] registered an AC50 of 6.51 µM.
Consider `Cc1cc(-c2ccccc2)nc2c(C(=O)Nc3ccc4c(c3)CCC4)cnn12` [NCGC00229719-01, N-(2,3-dihydro-1H-inden-5-yl)-7-methyl-5-phenylpyrazolo[1,5-a]pyrimidine-3-carboxamide], for which the half-maximal activity concentration (AC50) was found to be 8.19 µM.
The value for `CCc1ccc(NC(=O)c2cnn3c(C(F)F)cc(C)nc23)cc1` [MLS000708974-01, 7-(difluoromethyl)-N-(4-ethylphenyl)-5-methylpyrazolo[1,5-a]pyrimidine-3-carboxamide] was 2.24 µM; that for `O=C(Nc1ccccc1Sc1ccccc1)c1cnn2c1NC(=C1CC1)C=C2C(F)(F)F` [NCGC00182190-01, 5-cyclopropylidene-N-(2-(phenylthio)phenyl)-7-(trifluoromethyl)-4,5-dihydropyrazolo[1,5-a]pyrimidine-3-carboxamide] was 14.1 µM; that for `O=C(Nc1cc(F)ccc1F)c1cnn2c1NC(=C1CC1)C=C2C(F)F` [NCGC00182172-01, 5-cyclopropylidene-7-(difluoromethyl)-N-(2,5-difluorophenyl)-4,5-dihydropyrazolo[1,5-a]pyrimidine-3-carboxamide] was 3.16 µM.
The value for `Cc1cc(C)n2ncc(C(=O)Nc3cccc(C(F)(F)F)c3)c2n1` [NCGC00188786-01, 5,7-dimethyl-N-(3-(trifluoromethyl)phenyl)pyrazolo[1,5-a]pyrimidine-3-carboxamide] was 41.1 µM; that for `Cc1cccc(NC(=O)c2cnn3c2NC(=C2CC2)C=C3C(F)F)n1` [NCGC00182139-01, 5-cyclopropylidene-7-(difluoromethyl)-N-(6-methylpyridin-2-yl)-4,5-dihydropyrazolo[1,5-a]pyrimidine-3-carboxamide] was 12.6 µM.
The value for `Cc1ccc(NC(=O)c2cnn3c(C)cc(C)nc23)c(F)c1` [NCGC00188779-01, N-(2-fluoro-4-methylphenyl)-5,7-dimethylpyrazolo[1,5-a]pyrimidine-3-carboxamide] was 11.6 µM; that for `Cc1cc(C)n2ncc(C(=O)Nc3ccccc3Sc3ccccc3)c2n1` [NCGC00229712-01, 5,7-dimethyl-N-(2-(phenylthio)phenyl)pyrazolo[1,5-a]pyrimidine-3-carboxamide] was 18.3 µM; that for `Cc1cc(C)n2ncc(C(=O)Nc3ccc(C(F)(F)F)cc3)c2n1` [NCGC00188787-01, 5,7-dimethyl-N-(4-(trifluoromethyl)phenyl)pyrazolo[1,5-a]pyrimidine-3-carboxamide] was 1.46 µM.
In turn, `O=C(Nc1cnn(Cc2ccc(F)cc2)c1)c1cnn2c(C(F)F)cc(-c3ccccc3)nc12` [MLS000662187-01, 7-(difluoromethyl)-N-(1-(4-fluorobenzyl)-1H-pyrazol-4-yl)-5-phenylpyrazolo[1,5-a]pyrimidine-3-carboxamide] had a concentration at half-maximal activity (AC50) of 3.26 µM.
`Cc1cc(C)n2ncc(C(=O)NCC(C)C)c2n1` [NCGC00187978-01, N-isobutyl-5,7-dimethylpyrazolo[,15-a]pyrimidine-3-carboxamide] registered an AC50 of 32.6 µM. Compared with the last molecule, the AC50 is about 10-fold higher.
The value for `O=C(NC1CCCc2ccccc21)c1cnn2c1NC(=C1CC1)C=C2C(F)F` (stereo not drawn) [NCGC00182176-01, 5-cyclopropylidene-7-(difluoromethyl)-N-(1,2,3,4-tetrahydronaphthalen-1-yl)-4,5-dihydropyrazolo[1,5-a]pyrimidine-3-carboxamide] was 14.3 µM; that for `C=C1C=C(C(F)F)n2ncc(C(=O)N3CCN(c4ccccc4)CC3)c2N1` [NCGC00182152-01, (7-(difluoromethyl)-5-methylene-4,5-dihydropyrazolo[1,5-a]pyrimidin-3-yl)(4-phenylpiperazin-1-yl)methanone] was 31.6 µM.
The value for `Cc1cc(C)n2ncc(C(=O)Nc3ccc(F)cc3)c2n1` [NCGC00188766-01, N-(4-fluorophenyl)-5,7-dimethylpyrazolo[1,5-a]pyrimidine-3-carboxamide] was 5.8 µM.
The value for `CC(=O)c1cccc(NC(=O)c2cnn3c(C)cc(C)nc23)c1` [NCGC00188785-01, N-(3-acetylphenyl)-5,7-dimethylpyrazolo[1,5-a]pyrimidine-3-carboxamide] was 32.6 µM.
As to `C=C1C=C(C(F)F)n2ncc(C(=O)Nc3ccccc3OCC)c2N1` [NCGC00182160-01, 7-(difluoromethyl)-N-(2-ethoxyphenyl)-5-methylene-4,5-dihydropyrazolo[1,5-a]pyrimidine-3-carboxamide], the AC50 amounted to 2.51 µM.
`C=C1C=C(C(F)F)n2ncc(C(=O)NCCc3ccccc3OC)c2N1` [NCGC00182147-01, 7-(difluoromethyl)-N-(2-methoxyphenethyl)-5-methylene-4,5-dihydropyrazolo[1,5-a]pyrimidine-3-carboxamide]: the concentration at half-maximal activity (AC50) was determined as 25.1 µM.
The value for `C=C1C=C(C(F)F)n2ncc(C(=O)NCCc3ccccc3Cl)c2N1` [NCGC00182151-01, N-(2-chlorophenethyl)-7-(difluoromethyl)-5-methylene-4,5-dihydropyrazolo[1,5-a]pyrimidine-3-carboxamide] was 31.6 µM; that for `Cc1cc(C)n2ncc(C(=O)NC3CCCCC3)c2n1` [NCGC00187971-01, N-cyclohexyl-5,7-dimethylpyrazolo[1,5-a]pyrimidine-3-carboxamide] was 10.3 µM; that for `O=C(Nc1ccc(Br)cc1F)c1cnn2c1NC(=C1CC1)C=C2C(F)F` [NCGC00182179-01, N-(4-bromo-2-fluorophenyl)-5-cyclopropylidene-7-(difluoromethyl)-4,5-dihydropyrazolo[1,5-a]pyrimidine-3-carboxamide] was 2.51 µM.
`Cc1cc(C)n2ncc(C(=O)NCc3cccc(Cl)c3)c2n1` [NCGC00187965-01, N-(3-chlorobenzyl)-5,7-dimethylpyrazolo[1,5-a]pyrimidine-3-carboxamide] returned an AC50 of 18.3 µM.
The value for `C=C1C=C(C(F)F)n2ncc(C(=O)NCCc3ccc(Cl)cc3)c2N1` [NCGC00182159-01, N-(4-chlorophenethyl)-7-(difluoromethyl)-5-methylene-4,5-dihydropyrazolo[1,5-a]pyrimidine-3-carboxamide] was 15.8 µM.
In turn, `Cc1cc(C)n2ncc(C(=O)NCc3ccccc3)c2n1` [NCGC00187976-01, N-benzyl-5,7-dimethylpyrazolo[1,5-a]pyrimidine-3-carboxamide] had a concentration at half-maximal activity (AC50) of 51.7 µM.
`C=C1C=C(C)n2ncc(C(=O)Nc3ccccc3C(=O)OC)c2N1` [NCGC00182165-01, methyl 2-(7-methyl-5-methylene-4,5-dihydropyrazolo[1,5-a]pyrimidine-3-carboxamido)benzoate] gave an AC50 of 10 µM. This AC50 lies about 5.2-fold lower than the previous one.
`O=C(NC1CCCCC1)c1cnn2c1NC(=C1CC1)C=C2C(F)F` [NCGC00182175-01, N-cyclohexyl-5-cyclopropylidene-7-(difluoromethyl)-4,5-dihydropyrazolo[1,5-a]pyrimidine-3-carboxamide] came in with an AC50 of 12.6 µM. This AC50 and that of the molecule before are within 1.5-fold of each other.
For the molecule `CC(=O)c1ccc(NC(=O)c2cnn3c(C)cc(C)nc23)cc1` [NCGC00188784-01, N-(4-acetylphenyl)-5,7-dimethylpyraozlo[1,5-a]pyrimidine-3-carboxamide], the concentration at half-maximal activity (AC50) is 163 µM.
